How the values were obtained:
Assay type in all cases: cell-based
[1] = system: Salmonella TA104; assay: Salmonella plate-incorporation mutagenicity assay, strain TA104, with S9 mix
[2] = system: Salmonella TA98; assay: Salmonella plate-incorporation mutagenicity assay, strain TA98, with S9 mix
[3] = system: Salmonella TA100; assay: Salmonella plate-incorporation mutagenicity assay, strain TA100

O[C@@H]1c2ccccc2-c2c(ccc3ccsc23)[C@H]1O (racemic) [P[4,3-b]T 6,7-diol, (±)-trans-6,7-Dihydrophenanthro[4,3-b]thiophene 6,7-diol]
Rev/plate ([1]; TA104 +S9, Test 2, 5 µg/plate, zero-dose 276/260/270): 330/353
Rev/plate ([1]; TA104 +S9, Test 2, 10 µg/plate, zero-dose 276/260/270): 391/347
Rev/plate ([1]; TA104 +S9, Test 2, 20 µg/plate, zero-dose 276/260/270): 348/340
Rev/plate ([1]; TA104 +S9, Test 2, 40 µg/plate, zero-dose 276/260/270): 305/354
Rev/plate ([1]; TA104 +S9, Test 3, 5 µg/plate, zero-dose 402/395/336): 438/407
Rev/plate ([1]; TA104 +S9, Test 3, 10 µg/plate, zero-dose 402/395/336): 442/462
Rev/plate ([1]; TA104 +S9, Test 3, 20 µg/plate, zero-dose 402/395/336): 423/445
Rev/plate ([1]; TA104 +S9, Test 3, 40 µg/plate, zero-dose 402/395/336): 365/373
Mutagenic potency, Revertants/µg ± S.E., TA104 ([1]; plate-incorporation, +S9): 9.2 ± 1.3 rev/µg
Rev/plate ([2]; TA98 +S9, Test 1, 2 µg/plate, zero-dose 33/40/39): 34 rev/plate
Rev/plate ([2]; TA98 +S9, Test 1, 5 µg/plate, zero-dose 33/40/39): 35 rev/plate
Rev/plate ([2]; TA98 +S9, Test 1, 10 µg/plate, zero-dose 33/40/39): 47 rev/plate
Rev/plate ([2]; TA98 +S9, Test 1, 20 µg/plate, zero-dose 33/40/39): 52 rev/plate
Rev/plate ([2]; TA98 +S9, Test 1, 40 µg/plate, zero-dose 33/40/39): 39 rev/plate
Rev/plate ([2]; TA98 +S9, Test 1, 80 µg/plate, zero-dose 33/40/39): 36 rev/plate
Rev/plate ([2]; TA98 +S9, Test 2, 5 µg/plate, zero-dose 43/41/30): 28/34
Rev/plate ([2]; TA98 +S9, Test 2, 10 µg/plate, zero-dose 43/41/30): 27/28
Rev/plate ([2]; TA98 +S9, Test 2, 20 µg/plate, zero-dose 43/41/30): 38/27
Rev/plate ([2]; TA98 +S9, Test 2, 40 µg/plate, zero-dose 43/41/30): 33/27
Rev/plate ([2]; TA98 +S9, Test 3, 5 µg/plate, zero-dose 49/50/50): 50/53
Rev/plate ([2]; TA98 +S9, Test 3, 10 µg/plate, zero-dose 49/50/50): 43/47
Rev/plate ([2]; TA98 +S9, Test 3, 20 µg/plate, zero-dose 49/50/50): 52/47
Rev/plate ([2]; TA98 +S9, Test 3, 40 µg/plate, zero-dose 49/50/50): 48/50
Mutagenic potency, Revertants/µg ± S.E., TA98 ([2]; plate-incorporation, +S9): −0.2 ± 0.1 rev/µg
Rev/plate ([3]; TA100 +S9, Test 1, 2 µg/plate, zero-dose 99/110/110): 101 rev/plate
Rev/plate ([3]; TA100 +S9, Test 1, 5 µg/plate, zero-dose 99/110/110): 128 rev/plate
Rev/plate ([3]; TA100 +S9, Test 1, 10 µg/plate, zero-dose 99/110/110): 126 rev/plate
Rev/plate ([3]; TA100 +S9, Test 1, 20 µg/plate, zero-dose 99/110/110): 127 rev/plate
Rev/plate ([3]; TA100 +S9, Test 1, 40 µg/plate, zero-dose 99/110/110): 132 rev/plate
Rev/plate ([3]; TA100 +S9, Test 1, 80 µg/plate, zero-dose 99/110/110): 137 rev/plate
Rev/plate ([3]; TA100 +S9, Test 2, 5 µg/plate, zero-dose 84/78/80): 97/98
Rev/plate ([3]; TA100 +S9, Test 2, 10 µg/plate, zero-dose 84/78/80): 79/88
Rev/plate ([3]; TA100 +S9, Test 2, 20 µg/plate, zero-dose 84/78/80): 94/113
Rev/plate ([3]; TA100 +S9, Test 2, 40 µg/plate, zero-dose 84/78/80): 119/81
Rev/plate ([3]; TA100 +S9, Test 3, 5 µg/plate, zero-dose 127/118/125): 125/135
Rev/plate ([3]; TA100 +S9, Test 3, 10 µg/plate, zero-dose 127/118/125): 132/119
Rev/plate ([3]; TA100 +S9, Test 3, 20 µg/plate, zero-dose 127/118/125): 134/155
Rev/plate ([3]; TA100 +S9, Test 3, 40 µg/plate, zero-dose 127/118/125): 136/128
Mutagenic potency, Revertants/µg ± S.E., TA100 ([3]; plate-incorporation, +S9): 0.4 ± 0.1 rev/µg

Nc1ccc2cc3ccccc3cc2c1 [2-aminoanthracene, reference compound]
Rev/plate ([1]; TA104 +S9, Test 1, 0.1 µg/plate, zero-dose 379/400/370): 469/478
Rev/plate ([1]; TA104 +S9, Test 1, 0.25 µg/plate, zero-dose 379/400/370): 650/632
Rev/plate ([1]; TA104 +S9, Test 1, 0.5 µg/plate, zero-dose 379/400/370): 849/818
Rev/plate ([1]; TA104 +S9, Test 1, 1 µg/plate, zero-dose 379/400/370): 1004/998
Rev/plate ([1]; TA104 +S9, Test 1, 2 µg/plate, zero-dose 379/400/370): 1335/1432
Rev/plate ([1]; TA104 +S9, Test 2, 0.1 µg/plate, zero-dose 276/260/270): 366/337
Rev/plate ([1]; TA104 +S9, Test 2, 0.25 µg/plate, zero-dose 276/260/270): 521/530
Rev/plate ([1]; TA104 +S9, Test 2, 0.5 µg/plate, zero-dose 276/260/270): 764/666
Rev/plate ([1]; TA104 +S9, Test 2, 1 µg/plate, zero-dose 276/260/270): 983/956
Rev/plate ([1]; TA104 +S9, Test 2, 2 µg/plate, zero-dose 276/260/270): 1321/1392
Rev/plate ([1]; TA104 +S9, Test 3, 0.1 µg/plate, zero-dose 402/395/336): 444/419
Rev/plate ([1]; TA104 +S9, Test 3, 0.25 µg/plate, zero-dose 402/395/336): 570/588
Rev/plate ([1]; TA104 +S9, Test 3, 0.5 µg/plate, zero-dose 402/395/336): 822/811
Rev/plate ([1]; TA104 +S9, Test 3, 1 µg/plate, zero-dose 402/395/336): 1079/1097
Rev/plate ([1]; TA104 +S9, Test 3, 2 µg/plate, zero-dose 402/395/336): 1434/1518
Rev/plate ([1]; TA104 +S9, Test 4, 0.1 µg/plate, zero-dose 482/455/462): 573/564
Rev/plate ([1]; TA104 +S9, Test 4, 0.25 µg/plate, zero-dose 482/455/462): 699/711
Rev/plate ([1]; TA104 +S9, Test 4, 0.5 µg/plate, zero-dose 482/455/462): 864/989
Rev/plate ([1]; TA104 +S9, Test 4, 1 µg/plate, zero-dose 482/455/462): 1185/1181

From paper PMC2819846 (Mutation research, 2008)
